Results as given in US8093221B2, “Cosmetic and pharmaceutical compositions comprising lauroyl proline and an ester of anhydrohexitol and of an aliphatic carboxylic acid” (Societe d'Exploitation de Produits pour les Industries …, priority 2005, dated 2012).

Test: Tests for dissolving the composition in liquid media (water, liquid paraffin, propylene glycol)
Assay type: physicochemical
Conditions: 0.75% by mass of N-lauroyl proline (Composition 3 at 3% by mass)
Procedure: Composition 3 prepared in the above paragraph is dissolved in water, in liquid paraffin and in propylene glycol, at a proportion of 3% by mass, which corresponds to 0.75% by mass of N-lauroyl proline.

- Temperature at which dispersible in liquid paraffin (liquid paraffin): dispersible at 70 °C
- Temperature at which dispersible in propylene glycol (propylene glycol): dispersible at 60 °C
- Temperature at which dispersible in water (water): dispersible at 80 °C
Structure (SMILES): CCCCCCCCCCCC(=O)N1CCC[C@H]1C(=O)O [Pure N-lauroyl proline, N-lauroyl proline]
